Laboratory results as given in ChEMBL document CHEMBL2434896, “Carbonic anhydrase inhibitors. Synthesis of heterocyclic 4-substituted pyridine-3-sulfonamide derivatives and their inhibition of the human cytosolic isozymes I and II and transmembrane tumor-associated isozymes IX and XII” (Eur J Med Chem, 2013).
Activity calls are given as the source filed them. The calls are words filed in the database; no cut-off is given here.

Assays:
Type in all cases: functional
[1] = test system: HOP-92; assay: Growth inhibition of human HOP92 cells at 10 uM after 48 hrs by sulforhodamine B assay; conditions: for inhibition of growth at 10 µM: HOP-92, 48 h, read-out: GI
[2] = test system: EKVX; assay: (§1) Growth inhibition of human EKVX cells at 10 uM after 48 hrs by sulforhodamine B assay
[3] = test system: SN12C; assay: Growth inhibition of human SN12C cells at 10 uM after 48 hrs by sulforhodamine B assay; conditions: for inhibition of growth at 10 µM: read-out: GI
[4] = test system: SNB-19; assay: Growth inhibition of human SNB19 cells at 10 uM after 48 hrs by sulforhodamine B assay; conditions: for inhibition of growth at 10 µM: SNB-19, 48 h, read-out: GI
[5] = test system: HT-29; assay: Growth inhibition of human HT-29 cells at 10 uM after 48 hrs by sulforhodamine B assay; conditions: for inhibition of growth at 10 µM: HT-29, 48 h, read-out: GI
[6] = test system: Malme-3M; assay: Growth inhibition of human MALME-3M cells at 10 uM after 48 hrs by sulforhodamine B assay; conditions: for inhibition of growth at 10 µM: read-out: GI
[7] = test system: UACC-257; assay: Growth inhibition of human UACC257 cells at 10 uM after 48 hrs by sulforhodamine B assay
[8] = test system: SW-620; assay: Growth inhibition of human SW620 cells at 10 uM after 48 hrs by sulforhodamine B assay; conditions: for inhibition of growth at 10 µM: SW-620, 48 h, read-out: GI
[9] = test system: 786-0; assay: Growth inhibition of human 786-0 cells at 10 uM after 48 hrs by sulforhodamine B assay; conditions: for inhibition of growth at 10 µM: 786-0, 48 h, read-out: GI
[10] = test system: A498; assay: Growth inhibition of human A498 cells at 10 uM after 48 hrs by sulforhodamine B assay; conditions: for inhibition of growth at 10 µM: A498, 48 h, read-out: GI
[11] = test system: OVCAR-8; assay: Growth inhibition of human OVCAR8 cells at 10 uM after 48 hrs by sulforhodamine B assay; conditions: for inhibition of growth at 10 µM: OVCAR-8, 48 h, read-out: GI
[12] = test system: MCF7; assay: Growth inhibition of human MCF7 cells at 10 uM after 48 hrs by sulforhodamine B assay; conditions: for inhibition of growth at 10 µM: MCF7, 48 h, read-out: GI
[13] = test system: NCI-H23; assay: Growth inhibition of human NCI-H23 cells at 10 uM after 48 hrs by sulforhodamine B assay; conditions: for inhibition of growth at 10 µM: NCI-H23, 48 h, read-out: GI
[14] = test system: SNB-75; assay: Growth inhibition of human SNB75 cells at 10 uM after 48 hrs by sulforhodamine B assay; conditions: for inhibition of growth at 10 µM: SNB-75, 48 h, read-out: GI
[15] = test system: NCI-H226; assay: Growth inhibition of human NCI-H226 cells at 10 uM after 48 hrs by sulforhodamine B assay; conditions: for inhibition of growth at 10 µM: NCI-H226, 48 h, read-out: GI
[16] = as §1; conditions: read-out: GI
[17] = Growth inhibition of human HCC2998 cells at 10 uM after 48 hrs by sulforhodamine B assay; conditions: HCC 2998, 48 h, read-out: GI
[18] = Growth inhibition of human NCI-ADR-RES cells at 10 uM after 48 hrs by sulforhodamine B assay; conditions: read-out: GI
[19] = Growth inhibition of human Hs 578T cells at 10 uM after 48 hrs by sulforhodamine B assay; conditions: read-out: GI

SMILES | growth inhibition (GI) [2] | inhibition of growth at 10 µM [3] | inhibition of growth at 10 µM [4] | inhibition of growth at 10 µM [5] | inhibition of growth at 10 µM [6] | growth inhibition (GI) [7] | growth inhibition (GI) [8] | growth inhibition (GI) [9] | inhibition of growth at 10 µM [10] | inhibition of growth at 10 µM [11] | growth inhibition (GI) [12] | growth inhibition (GI) [13] | inhibition of growth at 10 µM [15] | inhibition of growth at 10 µM [16] | growth inhibition (GI) [4] | inhibition of growth at 10 µM [9] | growth inhibition (GI) [10] | inhibition of growth at 10 µM [12] | inhibition of growth at 10 µM [14] | growth inhibition (GI) [3] | also measured
NS(=O)(=O)c1cnccc1N1CCC(Cc2ccccc2)CC1 | inactive | 1% | 2% | 2% | 4% | inactive | inactive | inactive | 8% | 1% | inactive | inactive | 12% |  |  |  |  |  |  |  | inhibition of growth at 10 µM [1]: 39%; growth inhibition (GI) [14]: inactive
COc1ccccc1N1CCN(c2ccncc2S(N)(=O)=O)CC1 |  | 11% |  | 4% |  | inactive | inactive |  |  |  |  | inactive | 3% | 3% | inactive | 3% | inactive | 3% | 10% |  | growth inhibition (GI) [1]: inactive; growth inhibition (GI) [6]: inactive; growth inhibition (GI) [11]: inactive
NS(=O)(=O)c1cnccc1N1CCN(c2ccc(Cl)c(Cl)c2)CC1 |  | 17% | 5% | 29% | 24% |  |  |  | 12% |  |  |  | 28% | 30% |  | 15% |  | 37% | 3% |  | inhibition of growth at 10 µM [17]: 17%; inhibition of growth at 10 µM [8]: 3%; inhibition of growth at 10 µM [18]: 25%; inhibition of growth at 10 µM [13]: 33%
NS(=O)(=O)c1cnccc1N1CCN(c2ccccn2)CC1 |  | 4% |  |  | 8% |  |  |  | 24% | 12% |  |  | 5% | 1% | inactive | 2% |  | 3% | 12% |  | inhibition of growth at 10 µM [1]: 11%; growth inhibition (GI) [5]: inactive; inhibition of growth at 10 µM ([7]; UACC-257, 48 h, read-out: GI): 2%; inhibition of growth at 10 µM [8]: 1%; inhibition of growth at 10 µM [19]: 20%; inhibition of growth at 10 µM [18]: 6%; inhibition of growth at 10 µM [13]: 4%
Cc1ccc(C)c(N2CCN(c3ccncc3S(N)(=O)=O)CC2)c1 | inactive |  |  | 9% | 15% | inactive |  | inactive | 16% | 4% | inactive | inactive | 3% |  | inactive |  |  |  | 9% | inactive | inhibition of growth at 10 µM [8]: 3%
CCc1cc(CC)n(-c2ccncc2S(N)(=O)=O)n1 | inactive |  |  | 1% | 9% | inactive | inactive |  |  | 9% |  | inactive |  |  | inactive | 2% | inactive | 10% | 3% | inactive | inhibition of growth at 10 µM [1]: 1%; inhibition of growth at 10 µM [17]: 6%; growth inhibition (GI) [15]: inactive
NS(=O)(=O)c1cnccc1N1CCN(c2ccc(Cl)cc2)CC1 |  | 5% |  | 7% |  |  | inactive | inactive |  |  |  |  | 13% | 11% | inactive |  | inactive | 7% |  |  | growth inhibition (GI) [6]: inactive; inhibition of growth at 10 µM [13]: 7%; growth inhibition (GI) [14]: inactive
NS(=O)(=O)c1cnccc1N1CCN(c2ncccn2)CC1 | inactive |  | 1% |  | 6% | inactive | inactive |  |  |  | inactive | inactive |  |  |  | 1% | inactive |  | 11% | inactive | growth inhibition (GI) [1]: inactive; growth inhibition (GI) [5]: inactive; growth inhibition (GI) [11]: inactive; growth inhibition (GI) [15]: inactive
NS(=O)(=O)c1cnccc1N1CCN(Cc2ccc3c(c2)OCO3)CC1 | inactive |  | 3% |  |  | inactive | inactive | inactive | 10% |  | inactive | inactive |  |  |  |  |  |  | 9% | inactive | growth inhibition (GI) [1]: inactive; growth inhibition (GI) [5]: inactive; growth inhibition (GI) [6]: inactive; inhibition of growth at 10 µM [18]: 3%; growth inhibition (GI) [11]: inactive; growth inhibition (GI) [15]: inactive
